Results taken from patent publication US9718861B2 (Universitaet Leipzig, priority 2011, dated 2017).
Read-outs that look alike come from different tables or passages of the source. Each block holds one compound with its values, some of them ahead of it. Where a SMILES comes first, the peptide text is derived from it. Where no end group is shown, it is not given here. [ ]: non-standard residue; d: D form. d1Nal = N[C@H](Cc1cccc2ccccc12)C(=O)O; Cha = N[C@@H](CC1CCCCC1)C(=O)O; Phg = N[C@H](C(=O)O)c1ccccc1; Nva = CCC[C@H](N)C(=O)O

How the values were obtained:
[1] = target: T1, ghrelin receptor (Homo sapiens, UniProt Q92847); experiment: Inositol trisphosphate turnover assay in COS-7 cells transfected with the ghrelin receptor; type: cell-based; design: expressed in transfected cells; settings: for Emax: COS-7; for Emax ± SEM: efficacy; for EC50: mean ± SEM of n experiments
Target sequence in this assay (Q92847 whole entry): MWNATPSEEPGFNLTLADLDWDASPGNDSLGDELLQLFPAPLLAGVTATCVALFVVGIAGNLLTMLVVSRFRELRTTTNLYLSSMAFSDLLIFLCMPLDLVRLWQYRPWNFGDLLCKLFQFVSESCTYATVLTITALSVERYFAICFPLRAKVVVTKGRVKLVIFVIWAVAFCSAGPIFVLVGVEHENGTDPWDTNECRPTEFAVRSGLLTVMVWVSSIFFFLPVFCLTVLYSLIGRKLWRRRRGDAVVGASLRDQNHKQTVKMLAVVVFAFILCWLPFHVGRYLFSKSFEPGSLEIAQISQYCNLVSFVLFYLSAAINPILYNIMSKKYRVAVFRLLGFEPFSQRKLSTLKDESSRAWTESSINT
Description: COS-7 cells were grown in a humidified atmosphere at 37° C. and 5% CO2 in Dulbecco's modified Eagle's medium with higher glucose supplemented with 10% (v/v) FCS and 1% (v/v) penicillin/streptomycin. COS-7 cells were seeded out in 24-well plates (80.000-100.000 cells/well) in DMEM with 10% FCS. […] Each well was treated with 0.3 μg DNA and 0.9 μl metafectene.
The day after transfection, or the day after seeding for stable cells, cells were incubated with myo-[2-^3H]-inositol (2 μCi/ml) for 18 h and washed with DMEM/LiCl. Stimulation was then carried out with seven to nine different peptide concentrations in DMEM containing 10 mM LiCl, for 2 h, in duplicates. Stimulation was stopped by aspirating the medium and subsequently, cells were lysed with 150 μl of 0.1M NaOH for 5 min at RT. 50 μl of 0.2M HCOOH were added and the solution was diluted using 1 ml dilution buffer. […] Obtained data was analyzed with GraphPad Prism 3.0 (GraphPad Software). Therefore, dpm values are assigned to the corresponding peptide concentrations. Non-linear regression was used to obtain sigmoidal curves. For better comparability, dpm values were normalized to the constitutive activity. Constitutive activity of 100% represents the basal activity, the activity of the receptor without the influence of peptides. Emax is the efficacy of the peptide and represents the difference between constitutive activity and activity at maximal effect of the peptide. EC50 is the peptide concentration at half-maximal effect.

[2] = target: T1, ghrelin receptor; settings: background; cited from earlier work
Target sequence in this assay (Q92847 whole entry, species assumed): as the sequence (Q92847 whole entry) above

[3] = target: T1, ghrelin receptor; settings: background, cited from earlier work
Target sequence in this assay (Q92847 whole entry, species assumed): as the sequence (Q92847 whole entry) above

[4] = system: rats; experiment: ICV administration to rats, food intake; type: in vivo; settings: 1 nmol/rat, n=6, vs vehicle 0.9% saline with DMSO
Source text: For in vivo studies, peptide 3 was delivered intracerebroventricularly. The rats were stereotaxically implanted with a stainless steel cannula (Holm Finmekanik AS, Copenhagen, Denmark) aimed at the right lateral ventricle 1 mm caudal and 1.5 mm lateral to bregma and 4 mm ventral to cranium externa. Rats were left to recover in the metabolic cages (MANI Feed Win, Ellegaard Systems) for adaptation for at least 5 days, only interrupted by daily handling and body weight measurements. With these cages we could accurately measure the food and water intake of rats for up to 48 hours. The powdered diet used eliminated food hoarding and spill. Cannula placement was confirmed by measuring the drinking response to angiotensin injection (100 nmol/rat). Administration of peptide was done with 1 nmol/rat (n=6). As a negative control, a vehicle solution of 0.9% saline with DMSO (n=7) was used.

[5] = inverse agonistic activity, read-out: efficacy (Emax)
[6] = inverse agonistic activity, difference to constitutive activity (Table 2)
[7] = inverse agonistic activity, analogs KxFwLL-NH2 (Table 2)
[8] = shift in efficacy compared to KwFwLL-NH2, inverse agonistic activity
[9] = shift in potency compared to KwFwLL-NH2, inverse agonistic activity
[10] = inverse agonistic activity, analogs K-(D-1-Nal)-xwLL-NH2 (Table 5)
[11] = shift of efficacy compared to K-(D-1-Nal)-FwLL-NH2, inverse agonistic activity
[12] = shift of potency compared to K-(D-1-Nal)-FwLL-NH2, inverse agonistic activity
[13] = agonistic activity, read-out: Emax
[14] = agonistic activity, ghrelin and analogs KwFxLL-NH2 (Table 3)
[15] = agonistic activity, difference to constitutive activity (Table 3)
[16] = shift in efficacy compared to ghrelin, agonistic activity
[17] = shift in potency compared to ghrelin, agonistic activity

Compound: CC(C)C[C@H](NC(=O)[C@H](CC(C)C)NC(=O)[C@@H](Cc1c[nH]c2ccccc12)NC(=O)[C@H](Cc1ccccc1)NC(=O)[C@@H](Cc1c[nH]c2ccccc12)NC(=O)[C@@H](N)CCCCN)C(N)=O [Peptide 2, KwFwLL-NH2, reference compound]
Emax [1, 5]: 37% | Emax ± SEM [1, 6]: 37 ± 5 Δ % | EC50 [1, 7]: 45.6 nM | x-fold (Emax) [1, 8]: 1 x-fold | x-fold (EC50) [1, 9]: 1 x-fold

Compound: CCC[C@H](NC(=O)[C@@H](Cc1cccc2ccccc12)NC(=O)[C@@H](N)CCCCN)C(=O)N[C@H](Cc1c[nH]c2ccccc12)C(=O)N[C@@H](CC(C)C)C(=O)N[C@@H](CC(C)C)C(N)=O [Peptide 24, K-(D-1-Nal)-(L-Nva)-wLL-NH2] (H-K[d1Nal][Nva][dW]LL-NH2)
Emax ± SEM [1, 10]: 71 ± 4 Δ % | x-fold (Emax) [1, 11]: 1.1 x-fold | x-fold (EC50) [1, 12]: 146.5 x-fold

Compound: CC(C)C[C@H](NC(=O)[C@H](CC(C)C)NC(=O)[C@@H](Cc1c[nH]c2ccccc12)NC(=O)[C@H](Cc1ccc(C(C)(C)C)cc1)NC(=O)[C@@H](Cc1cccc2ccccc12)NC(=O)[C@@H](N)CCCCN)C(N)=O [Peptide 22, K-(D-1-Nal)-(L-tBf)-wLL-NH2]
Emax [1, 5]: 84% | Emax ± SEM [1, 10]: 84 ± 3 Δ % | x-fold (Emax) [1, 11]: 1.3 x-fold | x-fold (EC50) [1, 12]: 36.5 x-fold

Compound: CC(C)C[C@H](NC(=O)[C@H](CC(C)C)NC(=O)[C@@H](Cc1c[nH]c2ccccc12)NC(=O)[C@H](Cc1ccccc1)NC(=O)[C@@H](Cc1ccc(C(=O)c2ccccc2)cc1)NC(=O)[C@@H](N)CCCCN)C(N)=O [Peptide 7, K-(D-Bpa)-FwLL-NH2]
activity at the ghrelin receptor (in words) [1]: moderate activity | Emax ± SEM [1, 6]: 67 ± 7 Δ % | x-fold (Emax) [1, 8]: 1.8 x-fold | x-fold (EC50) [1, 9]: 3.70 x-fold

Compound: CC(C)C[C@H](NC(=O)[C@H](CC(C)C)NC(=O)[C@@H](Cc1c[nH]c2ccccc12)NC(=O)[C@H](CC1CCCCC1)NC(=O)[C@@H](Cc1cccc2ccccc12)NC(=O)[C@@H](N)CCCCN)C(N)=O [Peptide 21, K-(D-1-Nal)-(Cha)-wLL-NH2] (H-K[d1Nal][Cha][dW]LL-NH2)
Emax ± SEM [1, 10]: 85 ± 3 Δ % | x-fold (Emax) [1, 11]: 1.3 x-fold | x-fold (EC50) [1, 12]: 28.5 x-fold

Compound: fQwFwLL-NH2
decrease of activity in comparison to full-length modified substance P [2]: 1.6 fold | decrease of affinity in comparison to full-length modified substance P [3]: 5.3 fold

Compound: CC(C)C[C@H](NC(=O)[C@H](CC(C)C)NC(=O)[C@@H](Cc1c[nH]c2ccccc12)NC(=O)[C@H](Cc1ccccc1)NC(=O)[C@@H](Cc1cccc2ccccc12)NC(=O)[C@@H](N)CCCCN)C(N)=O [Peptide 3, K-(D-1-Nal)-FwLL-NH2]
decrease of food intake compared to vehicle [4]: ~5 fold

Compound: CC(C)C[C@H](NC(=O)[C@H](CC(C)C)NC(=O)[C@@H](Cc1c[nH]c2ccccc12)NC(=O)[C@H](Cc1ccccc1)NC(=O)[C@H](NC(=O)[C@@H](N)CCCCN)C(c1ccccc1)c1ccccc1)C(N)=O [Peptide 5, K-(D-Dip)-FwLL-NH2]
Emax [1, 5]: > 80% | Emax ± SEM [1, 6]: 87 ± 2 Δ % | increase in activity compared with peptide 2 (KwFwLL-NH2) ([1]; inverse agonistic activity): 3.5 fold | x-fold (Emax) [1, 8]: 2.4 x-fold | x-fold (EC50) [1, 9]: 0.29 x-fold

Compound: CC(C)C[C@H](NC(=O)[C@H](CC(C)C)NC(=O)[C@@H](Cc1csc2ccccc12)NC(=O)[C@H](Cc1ccccc1)NC(=O)[C@@H](Cc1cccc2ccccc12)NC(=O)[C@@H](N)CCCCN)C(N)=O [Peptide 19, K-(D-1-Nal)-F-(D-Bth)-LL-NH2]
Emax [1, 5]: 40% | Emax ± SEM ([1]; inverse agonistic activity, analogs KxFxLL-NH2 (Table 4)): 40 ± 2 Δ %

Compound: CC(C)C[C@H](NC(=O)[C@H](CC(C)C)NC(=O)[C@H](NC(=O)[C@H](Cc1ccccc1)NC(=O)[C@@H](Cc1c[nH]c2ccccc12)NC(=O)[C@@H](N)CCCCN)C(c1ccccc1)c1ccccc1)C(N)=O [Peptide 16, KwF-(D-Dip)-LL-NH2]
activity at the ghrelin receptor (in words) [1]: no activity

Compound: wFwLL-NH2 ([dW]F[dW]LL-NH2; N-terminus assumed; SMILES CC(C)C[C@H](NC(=O)[C@H](CC(C)C)NC(=O)[C@@H](Cc1c[nH]c2ccccc12)NC(=O)[C@H](Cc1ccccc1)NC(=O)[C@H](N)Cc1c[nH]c2ccccc12)C(N)=O)
IC50 ([3]; reference 17, read-out: IC50 (receptor binding)): 530 ± 230 nM

Compound: CC(C)C[C@H](NC(=O)[C@H](CC(C)C)NC(=O)[C@@H](Cc1cccc2ccccc12)NC(=O)[C@H](Cc1ccccc1)NC(=O)[C@@H](Cc1cccc2ccccc12)NC(=O)[C@@H](N)CCCCN)C(N)=O [Peptide 18, K-(D-1-Nal)-F-(D-1-Nal)-LL-NH2]
activity at the ghrelin receptor (in words) [1]: totally suppressed activity

Second part, the compound after the results:

activity at the ghrelin receptor (in words) [1]: moderate activity | Emax [1, 5]: > 80% | Emax ± SEM [1, 6]: 82 ± 0 Δ % | x-fold (Emax) [1, 8]: 2.2 x-fold | x-fold (EC50) [1, 9]: 4.03 x-fold
Compound: CC(C)C[C@H](NC(=O)[C@H](CC(C)C)NC(=O)[C@@H](Cc1c[nH]c2ccccc12)NC(=O)[C@H](Cc1ccccc1)NC(=O)[C@@H](Cc1ccc(-c2ccccc2)cc1)NC(=O)[C@@H](N)CCCCN)C(N)=O [Peptide 8, K-(D-Bip)-FwLL-NH2]

Emax [1, 13]: 54% | EC50 [1, 14]: 17.9 nM | Emax ± SEM [1, 15]: 54 ± 10 Δ % | x-fold (Emax) [1, 16]: 0.3 x-fold | x-fold (EC50) [1, 17]: 12.8 x-fold
Compound: CC(C)C[C@H](NC(=O)[C@H](CC(C)C)NC(=O)[C@@H](Cc1cccc2ccccc12)NC(=O)[C@H](Cc1ccccc1)NC(=O)[C@@H](Cc1c[nH]c2ccccc12)NC(=O)[C@@H](N)CCCCN)C(N)=O [Peptide 12, KwF-(D-1-Nal)-LL-NH2]

activity at the ghrelin receptor (in words) [1]: no activity
Compound: CC(C)C[C@H](NC(=O)[C@H](CC(C)C)NC(=O)[C@@H](Cc1ccc(C(=O)c2ccccc2)cc1)NC(=O)[C@H](Cc1ccccc1)NC(=O)[C@@H](Cc1c[nH]c2ccccc12)NC(=O)[C@@H](N)CCCCN)C(N)=O [Peptide 15, KwF-(D-Bpa)-LL-NH2]

x-fold (EC50) [1, 12]: >290 x-fold
Compound: CC(C)C[C@H](NC(=O)[C@H](CC(C)C)NC(=O)[C@@H](Cc1c[nH]c2ccccc12)NC(=O)[C@@H](NC(=O)[C@@H](Cc1cccc2ccccc12)NC(=O)[C@@H](N)CCCCN)c1ccccc1)C(N)=O [Peptide 25, K-(D-1-Nal)-(L-Phg)-wLL-NH2] (H-K[d1Nal][Phg][dW]LL-NH2; N-terminus assumed)

activity at the ghrelin receptor (in words) [1]: moderate activity | Emax ± SEM [1, 6]: 62 ± 4 Δ % | EC50 [1, 7]: 241 nM | x-fold (Emax) [1, 8]: 1.7 x-fold | x-fold (EC50) [1, 9]: 5.28 x-fold
Compound: CC(C)C[C@H](NC(=O)[C@H](CC(C)C)NC(=O)[C@@H](Cc1c[nH]c2ccccc12)NC(=O)[C@H](Cc1ccccc1)NC(=O)[C@@H](Cc1ccccc1)NC(=O)[C@@H](N)CCCCN)C(N)=O [Peptide 9, K-(D-Phe)-FwLL-NH2]

activity at the ghrelin receptor (in words) [1]: moderate activity | Emax ± SEM [1, 6]: 66 ± 4 Δ % | EC50 [1, 7]: 161 nM | x-fold (Emax) [1, 8]: 1.8 x-fold | x-fold (EC50) [1, 9]: 3.54 x-fold
Compound: CC(C)C[C@H](NC(=O)[C@H](CC(C)C)NC(=O)[C@@H](Cc1c[nH]c2ccccc12)NC(=O)[C@H](Cc1ccccc1)NC(=O)[C@@H](Cc1ccc2ccccc2c1)NC(=O)[C@@H](N)CCCCN)C(N)=O [Peptide 6, K-(D-2-Nal)-FwLL-NH2]

activity at the ghrelin receptor (in words) [1]: no activity
Compound: CC(C)C[C@H](NC(=O)[C@H](CC(C)C)NC(=O)[C@@H](Cc1ccc(-c2ccccc2)cc1)NC(=O)[C@H](Cc1ccccc1)NC(=O)[C@@H](Cc1c[nH]c2ccccc12)NC(=O)[C@@H](N)CCCCN)C(N)=O [Peptide 14, KwF-(D-Bip)-LL-NH2]

Emax [1, 13]: 156% | EC50 [1, 14]: 12.6 nM | percent of ghrelin efficacy ([1]; agonistic activity, relative to ghrelin): 96% | Emax ± SEM [1, 15]: 156 ± 22 Δ % | x-fold (Emax) [1, 16]: 1 x-fold | x-fold (EC50) [1, 17]: 9.00 x-fold
Compound: CC(C)C[C@H](NC(=O)[C@H](CC(C)C)NC(=O)[C@@H](Cc1ccc2ccccc2c1)NC(=O)[C@H](Cc1ccccc1)NC(=O)[C@@H](Cc1c[nH]c2ccccc12)NC(=O)[C@@H](N)CCCCN)C(N)=O [Peptide 13, KwF-(D-2-Nal)-LL-NH2]
